We go through three molecules from patent US9963476B2, “Antioxidant compound having anti atherosclerotic effect and preparation thereof” (Council of Scientific and Industrial Research, priority 2015, dated 2018).

Data set [1] concerns human aortic endothelial cells (HAEC). The data set is described as follows: Trypan blue cell viability assay, oxidant-induced endothelial cell death. The data set is classed as cell-based. To be noted: 2.5 μM, 2 h pretreatment, H2O2 500 μM or Ang-II 500 nM, 24 h. Here is the method:
Human aortic endothelial cells (HAECs) were obtained from ATCC (Manassas, Va.) and maintained (37° C. 5% CO2) in basal medium supplemented with 10% FBS, VEGF (5 ng/mL), hEGF (5 ng/mL), hFGF (5 ng/mL), IGF-1 (15 ng/mL), ascorbic acid (50 μg/mL), hydrocortisone (1 μg/mL), amphotericin (15 ng/mL), gentamicin (30 ng/mL) and heparin (0.75 Units/mL). Cells used in this study were between passages 4 and 9. Esculetin, Mito-Esc, TPP and nitric oxide synthase inhibitor (L-NAME) were added 2 h before the addition of H2O2 or Ang-II.
At the end of the treatments, cells were harvested and re-suspended in 0.4% trypan blue (Life Technologies) and percent cell viability was counted using cell countess chamber (Life Technologies).
For this, cells were pretreated for 2 h with either Mito-Esc or esculetin before they were incubated with either H2O2 or Ang-II.

For another data set, the system named is HAEC. Put plainly: Cellular uptake: Mito-Esc/esculetin quantified by ESI-MS in cytosolic and mitochondrial fractions of HAEC. It counts as in vitro ADME, human. To be noted: HAEC, 2.5 μM, 24 h. The method, then:
After the treatment, cells were washed thrice with PBS. Similarly Mito-Esculetin+ Ang-II treatment group, Ang-II alone treatment group and control Apo E^−/− mice aortic tissue was taken. The isolation of mitochondrial and cytosolic extracts was carried out using a commercially available Proteo Extract Cytosol/Mitochondria Fractionation Kit (Cat. no. QIA88-Merck, USA) according to manufacturer's instructions. Initially, mitochondrial and cytosolic fractions were separated using a commercially available kit as mentioned elsewhere. Mito-Esc was quantified in the mitochondrial and cytosolic fractions obtained from HAEC and aorta of ApoE^−/− mice of different treatment groups as mentioned in Animal Experiments section (Table-1). Electrospray ionization (ESI)-MS. ESI-MS (positive mode) measurements were performed using a quadrupole time-of-flight mass spectrometer (QSTAR XL, Applied Biosystems/MDS Sciex, Foster City, Calif., USA). The data acquisition was under the control of Analyst QS software (Applied Biosystems). For the CID (collision-induced dissociation) experiments, the precursor ions were selected using the quadrupole analyzer and the product ions were analyzed using the TOF analyzer.

The test system of data set [2] is caspase-3 and -8 activation in HAEC. Put plainly: Caspase-3 and -8 activity in HAEC lysates. The data set is classed as cell-based, human. To be noted: 2.5 μM pretreatment.
Experimental: HAEC were washed twice with cold DPBS and lysed in buffer containing 10-mM Tris-HCl, 10-mM NaH2PO4/Na2HPO4 (pH, 7.5). 130-mM NaCl. 1% Triton, and 10-mM sodium pyrophosphate. Cell lysates were incubated with either with caspase-3 fluorogenic substrate (N-acetyl-Asp-Glu-Val-Asp-7-amido-4-methylcoumarin) or caspase-8 fluorogenic substrate (N-acetyl-Ileu-Glu-Thr-Asp-7 amido-4-methylcoumarin) at 37° C. for 1 h. The 7-amido-4-methyl-coumarin liberated was measured in a multi mode reader (PerkinElmer) with λex=380 nm and λem=460 nm.
The test system of data set [3] is nitric oxide generation in HAEC. Put plainly: Intracellular nitric oxide levels by DAF-2DA fluorescence. The data set is classed as cell-based, human. The settings on record: H2O2 500 μM, 2.5 μM, 4 h. Here is the method: Intracellular nitric oxide levels were monitored by using the Diaminofluorescein-diacetate (DAF-2DA) fluorescence probe. After the treatments, cells were washed with DPBS and incubated in fresh culture medium without fetal bovine serum (FBS). DAF-2DA was added at a final concentration of 5 μM, and the cells were incubated for 30 minutes. The cells were washed twice with DPBS and maintained in culture medium. Fluorescence was monitored by using Olympus fluorescence microscope with FITC filter (λex=488 nm and […]). Fluorescence intensity was calculated by Image-Pro plus7.0 software.
To gain mechanistic insight on Mito-Esc-mediated protection of endothelial cells from oxidant-induced endothelial cell death, initially we hypothesized that Mito-Esc may augment intracellular nitric oxide generation. To study this, HAEC were treated with both Mito-Esc and esculetin in the presence or absence of H2O2 for a period of 4 h and nitric oxide (NO) levels were monitored by DAF-2 derived green fluorescence. Previously, it has been shown that DAF-2 forms a fluorescent triazole-type product in the presence of an oxidant derived from nitric oxide and oxygen interaction (Proc. Natl. Acad. Sci. USA 99: 11127-11132; 2002.; Am. J. Physiol. Regul. Integ. Comp. Physiol. 286:R344-R431; 2004). […] Next, we investigated the possible role of endothelial nitric oxide synthase (eNOS) in mediating the Mito-Esc induced NO generation in HAEC. For this, endothelial cells were treated with various concentrations of Mito-Esc (1-5 μM) for a period of 8 h. […] To further substantiate the results of DAF fluorescence, eNOS phosphorylation was measured in HAEC incubated with either with H2O2 or Ang-II for 8 h in cells pretreated with Mito-Esc or native esculetin. It was observed that both H2O2 and Ang-II caused a reduction in Phospho eNOS (Ser-1177) levels (FIG. 4D). Ang-II treatment imposed a drastic inhibition of phospho-eNOS levels when compared to H2O2 treatment in endothelial cells (FIG. 4D).

In data set [4] the test system is AMPK1-α phosphorylation (Thr-172). Put plainly: Western blot of AMPK phosphorylation in HAEC. The data set is classed as cell-based, human. The settings on record: H2O2 500 μM, 2.5 μM, 8 h. The method, then:
Previously, it was shown that AMPK co-immunoprecipitates with cardiac endothelial NO synthase (eNOS) and phosphorylates Ser-1177 in the presence of Ca^2+-calmodulin (CaM) to activate eNOS both in vitro and during ischaemia in rat hearts (FEBS Lett. (1999) 443:285-289). To test whether Mito-Esc mediates increased phosphorylation of eNOS through AMPK activation, initially, HAEC were treated various concentrations of Mito-Esc (1-5 μM) for 8 h and AMPK1-α phosphorylation (Thr-172) levels were measured. […] Next, we investigated the phospho-AMPK1-α levels in HAEC treated with H2O2 in the presence or absence of either Mito-Esc or native esculetin.
A general note: In western blotting, separated proteins are transferred to a membrane and probed.

Data set [5] deals with Ang-II-induced atherosclerosis in ApoE−/− mice. Put plainly: Serum lipid profile of Ang-II treated ApoE−/− mice. It counts as in vivo. The settings on record: serum, ApoE−/− mice, 45 days; Ang-II alone or Ang-II + Mito-Esc.
Experimental: Experiments were conducted in 2-month-old male apolipoprotein E knockout (ApoE^−/−) mice according to the guidelines formulated for care and use of animals in scientific research (ICMR, New Delhi, India) at a CPCSEA (Committee for the Purpose of Control and Supervision of Experiments on Animals) registered animal facility. […] Animals were randomly divided into 3 groups each n=7:1) control 2) Ang-II treatment and 3) Mito-Esculetin+Ang-II treatment. Ang-II and Mito-Esculetin treatment groups received Ang-II (sigma) at a dose of 1.44 mg/kg/day for 6 weeks through sub-cutaneous route where as control group received normal saline. Mito-Esculetin treatment group received the compound at a dose of 0.5 mg/kg/day in normal drinking water. All animals were fed on normal chow throughout the study. After 6 weeks, all groups of animals were sacrificed as per standard protocols for euthanasia.
We further analyzed the vascular remodelling employing histological stains in tissue sections of thoracic aortas. […] In tune with this, we have also measured Mac-3 levels by flow cytometry.
The subject of data set [6] is Ang-II-induced H2O2 production in HAEC. The data set is described as follows: H2O2 levels by Amplex red assay. It counts as cell-based, human. To be noted: Ang-II 500 nM, 16 h. The method, then:
Amplex red reagent was used to detect the released H2O2 from cells. […] Immediately, formation of resorufin fluorescence was measured in multi mode reader (PerkinElmer) with λex=540 and λem=585.
Ang-II is known to increase oxidative stress through increased production of H2O2 (Doughan A K, Harrison D G, Dikalov S I. Circ Res (2008) 102:488-96). […] Further, we assessed the effect of Mito-Esc on H2O2-induced mitochondrial membrane depolarization. HAEC were treated with H2O2 (500 μM) in the presence or absence of Mito-Esc for a period of 16 h and mitochondrial membrane potential was measured using a mitochondrial membrane sensor kit. Mito-Sensor is a cationic dye that fluoresces differently in apoptotic and nonapoptotic cells. […] In apoptotic cells, membrane potentials are altered and the Mito-Sensor dye cannot accumulate in mitochondria and, thus, remain as monomers leading to a green fluorescence.

Consider `c1ccc(P(c2ccccc2)c2ccccc2)cc1` [TPP^+, triphenylphosphonium cation], for which, in data set [1], the “oxidant (H2O2 and Ang-II)-induced endothelial cell death” value is recorded as “did not have any appreciable cytotoxic/cytoprotective effect”.
In turn, `O=c1ccc2cc(O)c(O)cc2o1` [Esculetin, 6,7-dihydroxycoumarin, reference compound] displayed a Cytosolic fraction with HAEC of 6249 ± 235 nmol/mg protein. Moreover, the “oxidant (H2O2 and Ang-II)-induced endothelial cell death” value in data set [1] was “but not esculetin significantly inhibited”. The “H2O2 and Ang-II-induced caspase-3 and -8 activation” value in data set [2] is listed as “marginal effect”. In addition, the “H2O2-mediated depletion of NO levels” value in data set [3] was “did not show any noticeable effect”. In addition, the “AMPK1-α phosphorylation in the presence of H2O2” value in data set [4] is “significantly decreased”.
For “Angiotensin-II (DRVYIHPF; Angiotensin-2; UniProt P01019 25-32, looked up) [Ang-II, inducer of oxidative stress and atherosclerosis in the models, reference compound]”, in data set [5], the HDL came to 02.21 ± 1.2 mg/dL, the LDL was determined as 423.93 ± 29.6 mg/dL, the “Total Cholesterol” value stood at 656.19 ± 34.2 mg/dL and the Triglycerides was 234.50 ± 21.5 mg/dL. Further, the VLDL in data set [5] came out at 46.9 ± 2.2 mg/dL. For the same molecule, in data set [6], the “H2O2 generation compared to untreated conditions” value is on record as “around 2.7 fold”.
